Where “and” joins values, the source holds several entries; their conditions need not be identical. Identical values can stand only once.
Experiments:
male mouse = assay: Expectorant activity, phenol red secretion method in mouse; type: in vivo
Method: In order to measure expectorant activities of Coptidis Rhizoma extracts of the Examples 1-1 to 1-3, experiment was conducted using Engler et al. method ([…]. Pharmacol. Moth. 11, 151 157, 1984, Bao-quin Lin et., Pulmonary Pharmacology & Therapeutics 21, 259 263, 2008.) in the following procedure. A positive control drug (ambroxol, Sigma) and test drugs (Coptidis Rhizoma extract of Examples 1-1 to 1-3) were orally administered to a male mouse (8-weeks age, Sam tako BioKorea), and after 30 minutes, 500 mg/kg of phenol red was intraperitoneally injected (phenol red was dissolved in saline). After 30 minutes, the mouse was anesthetized with diethyl ether, exsanguinated by cutting the abdominal aorta, and then the whole trachea was resected. […] In order to evaluate expectorant activities of the combined extract and single extract prepared in the Example 2 (2-1 to 2-11), experiment was conducted by the same method as described in [Experiment method] of Experiment 3-1, using Engler, et al. method ([…]. Pharmacol. Moth. 11, 151 157, 1984., Bao-quin Lin et., Pulmonary Pharmacology & Therapeutics 21, 259 263, 2008.), of which results are shown in FIG. 2.

peritoneal mast cell = assay: Antihistamine activity, compound 48/80-induced histamine release from peritoneal mast cells of ovalbumin-sensitized rat; type: cell-based; conditions: oral dosage 5 mg/kg
Method: In order to measure antihistamine activity of Coptidis Rhizoma extract of Examples 1-1 to 1-3, experiment was conducted using Honuchi et al. method (Masako Honuchi and Yoshiyuki Seyama, J. Health Sci., 52(6), 711˜717, 2006., Naoki Inagaki et al. Biol. Pharm. Bull. 24(7), 829˜834, 2001.) in the following procedure.
Antihistamine effect was measured using peritoneal mast cell of a male rat (7-weeks age, Sam tako BioKorea) sensitized with ovalbumin As positive control, Ketotifen (Sigma) was used. To a rat sensitized with ovalbumin, Ketotifen was orally administered at a concentration of 5 mg/kg, and test drugs were orally administered respectively at a concentration of 200 mg/kg for 4 days, and then, peritoneal mast cells were separated. The separated peritoneal mast cells (2×10^5 cells/ml) were treated with Ketotifen at concentrations of 0.01 mg/ml, 0.1 mg/ml, and 1.0 mg/ml, and test drugs at concentrations of 0.1 mg/ml, 1.0 mg/ml, and 10 mg/ml. Finally, the mast cells were treated with compound 48/80 (Sigma) which activates non-immunological histamine release at a concentration of 10 μg/ml. At this time, the amount of histamine released from mast cells was quantified to examine whether the test materials suppress release of histamine from the mast cells. The relative amount of histamine released from mast cell in a rat to which no drug was administered was measured, of which results are presented in the following Table 5.
In order to measure antihistamine activities of 5 sub-fractions prepared in the above Example 1-4, the same experiment was conducted as the above Experiment 3-3, of which results are presented in the following Table 8.
In order to measure antihistamine effect of ivy leaf extract, and combined extract of Coptidis Rhizoma with ivy leaf (Examples 2-1 to 2-11) prepared in Example 2 in mast cell, experiment was conducted by the same method as described in [Experiment method] in Experiment 3-3 using Honuchi et al. method (Masako Honuchi and Yoshiyuki Seyama, J. Health Sci., 52(6), 711˜717, 2006., Naoki Inagaki et. Biol. Pharm. Bull. 24(7), 829˜834, 2001.), of which results are presented in the following Table 13.

[1] = test system: OVA-sensitized Balb/c mouse; assay: Murine asthma model: airway hyper-responsiveness (AHR) to methacholine; type: in vivo; conditions: 30 mg/kg oral, Day 14-20
Method: (§1) And, for evaluation, examination of airway hyper-responsiveness (AHR) for methacholine, examination of IgE value in blood plasma, examination of the number of cells and the distribution of white blood cells in bronchoalveolar lavage fluid (BALF), observation of pulmonary tissue, and RT-PCR (IL-1β, IL-4, IL-13r2a) were conducted.
(§2) To a Balb/c mouse (18˜21 g, Orientbio Inc.), an ovalbumin (OVA, Sigma) solution prepared for intraperitoneal injection was intraperitoneally administered in an amount of 500 ul (20 ug as OVA) per one mouse at Day 0 and Day 7, and it was sensitized with a solution prepared for OVA inhalation using a nebulizer (NE-U17, OMRON Co. Ltd, Japan) and then, the prepared 5% OVA solution was inhaled everyday for 30 minutes from Day 14 to Day 20. As positive control drug, 30 mg/kg of montelukast sodium was used, and all the experiment materials were used in an amount of 200 mg/kg. And, positive control drug and the experiment materials were orally administered everyday one hour before OVA inhalation for 7 days of from Day 14 to Day 20 after sensitization, and then, experiments were conducted by the following evaluation items.
24 hours after final inhalation of OVA (at Day 21), the mouse was put in a whole body plethysmograph (BUXCO, USA), each 0.4 ml of methacholine solutions of concentrations of 0, 10 and 20 mg/ml were taken to introduce in an aerosol, and inhaled to the mouse respectively for 3 minutes. And, Penh were measured for 4 minutes from the inhalation time, and the average value was set as Penh (enhanced pause) at corresponding dosage of methacholine.

immunoglobulin E (IgE) = assay: Murine asthma model: IgE value in blood plasma (ELISA); type: in vivo, mouse; conditions: Day 21, 30 mg/kg oral
Method: as §1
as §2, with “And, positive control drug and the experiment materials were orally administered everyday one hour before OVA inhalation for 7 days of from Day 14 to Day 20 after sensitization, and then, experiments were conducted by the following evaluation items.” left out
For the animal measured according to 1), about 0.05 ml of blood was collected by orbital blood sampling and centrifuged, and the obtained plasma was divided into two parts and diluted to 1:10 to examine immunoglobulin E (IgE) value in plasma through IgE enzyme linked immunosorbent assay (ELISA; IgE ELISA kit for mouse, ME-151, SHIBAYAGI Co., Ltd., JAPAN).

[2] = test system: neutrophils and eosinophils in BALF; assay: Murine asthma model: number of cells in bronchoalveolar lavage fluid (BALF); type: in vivo, mouse; conditions: Day 22, 30 mg/kg oral
Method: as §1
as §2, with “And, positive control drug and the experiment materials were orally administered everyday one hour before OVA inhalation for 7 days of from Day 14 to Day 20 after sensitization, and then, experiments were conducted by the following evaluation items.” left out
To the animals whose blood was sampled according to 2), sodium pentothal (50 mg/kg) was injected intraperitoneally to anesthetize it. […] For the suspension, the numbers of total leucocytes, neutrophils, eosinophils and lymphocytes were measured using automated hematology analyzers (Advia 120 coulter counter, BAYER, Germany).

pulmonary tissue = assay: Murine asthma model: observation of pulmonary tissue; type: in vivo, mouse; conditions: score 1=No, 2=slight, 3=thin, 4=moderate, 5=thick; 30 mg/kg oral
Method: as §1, §2
The left lung fixed with a nipper was taken off and fixed with a 10% formalin solution for one day, and then, paraffin-penetrated tissue using a tissue processor was cut to a thickness of 3-4 um using a microtome to make tissue fragments. […]

IL-1β = assay: Murine asthma model: RT-PCR of lung tissue, IL-1β; type: in vivo, mouse; conditions: band density divided by actin density, 30 mg/kg oral
Method: as §1
as §2, with “And, positive control drug and the experiment materials were orally administered everyday one hour before OVA inhalation for 7 days of from Day 14 to Day 20 after sensitization, and then, experiments were conducted by the following evaluation items.” left out
(§3) Right pulmonary tissue was rapidly taken off and stored at −80° C. before experiment. RNA was separated from the tissue using RNA-Bee (Tel-Test Inc. USA), and the separated RNA was quantified at 260 nm using a spectrometer, and then, 4 ug of RNA and Oligo dT 2 ul (Promega), DEPC water were added to make 10 ul and the mixture was reacted at 65 r for 5 minutes. […]

IL-4 = assay: Murine asthma model: RT-PCR of lung tissue, IL-4; type: in vivo, mouse; conditions: band density divided by actin density, 30 mg/kg oral
Method: as §1
as §2, with “And, positive control drug and the experiment materials were orally administered everyday one hour before OVA inhalation for 7 days of from Day 14 to Day 20 after sensitization, and then, experiments were conducted by the following evaluation items.” left out
as §3

IL-13r2a = assay: Murine asthma model: RT-PCR of lung tissue, IL-13r2a; type: in vivo, mouse; conditions: band density divided by actin density, 30 mg/kg oral
Method: as §1
as §2, with “And, positive control drug and the experiment materials were orally administered everyday one hour before OVA inhalation for 7 days of from Day 14 to Day 20 after sensitization, and then, experiments were conducted by the following evaluation items.” left out
as §3

male guinea pig = assay: Antitussive activity, citric acid-induced cough in guinea pig; type: in vivo; conditions: oral 50 mg/kg, 0.2M citric acid
Method: In order to measure antitussive activity of Coptidis Rhizoma extracts of Examples 1-1 to 1-3, experiment was conducted using Tanaka et al. method (Motomu Tanaka and Kei Maruyama., J. Pharmacol. Sci. 93, 465˜470, 2003., Daoui, Cognon, Naline et., Am. J. Respir. Crit. Care. Med. 158, 42˜48, 1998) in the following procedure.
A test drug was orally administered to a male guinea pig (6-weeks age, Sam tako BioKorea), and after 1 hour, the guinea pig was put in a plethysmograph chamber (Buxco, U.S.A.), and then, a cough inducer, citric acid (Sigma) was nebulized to induce cough. As positive control, theobromine (Sigma) which is used as an antitussive was used. And, the guinea pig was exposed to 0.2M citric acid for 10 minutes, and the number of coughs occurred was measured for 15 minutes.
In order to measure antitussive activities of 5 sub-fractions prepared in the above Example 1-4, experiment for antitussive activity was conducted by the same method as Experiment 3-2, of which results are presented in the following Table 7. […]

COc1ccc2cc3[n+](cc2c1OC)CCc1cc2c(cc1-3)OCO2 [Berberine, berberine]
Capacity to discharge sputum (%) (male mouse; oral 125 mg/kg): 39%

CN1CCC(=C2c3ccccc3CC(=O)c3sccc32)CC1 [Ketotifen]
Histamine release amount (%) (peritoneal mast cell; mast cell treatment 0 mg/ml): 43% and 44% | Histamine release amount (%) (peritoneal mast cell; mast cell treatment 0.01 mg/ml): 41% | Histamine release amount (%) (peritoneal mast cell; mast cell treatment 0.1 mg/ml): 32% | Histamine release amount (%) (peritoneal mast cell; mast cell treatment 1.0 mg/ml): 18% and 19%

CC(C)(O)c1ccccc1CC[C@@H](SCC1(CC(=O)O)CC1)c1cccc(/C=C/c2ccc3ccc(Cl)cc3n2)c1 [montelukast, montelukast sodium]
Penh value according to methacholine dosage ([1]; methacholine 0 mg/ml): 1.5 ± 0.2 | Penh value according to methacholine dosage ([1]; methacholine 10 mg/ml): 8.4 ± 2.4 | Penh value according to methacholine dosage ([1]; methacholine 20 mg/ml): 19.8 ± 5.4 | IgE level (immunoglobulin E (IgE)): 13.7 ± 5.7 ng/mL | WBC EOS (eosinophil) [2]: 466.0 ± 207.0 ×10^3 cells | WBC NEU (neutrophil) [2]: 22.3 ± 7.2 ×10^3 cells | Microscope observation: Degree of infiltration of inflammatory cells (pulmonary tissue): 3.7 ± 0.5 | Microscope observation: Degree of occlusion of bronchus (pulmonary tissue): 3.5 ± 0.5 | Degree of cytokine expression IL-1β (IL-1β): 0.51 ± 0.26 | Degree of cytokine expression IL-4 (IL-4): 1.47 ± 0.48 | Degree of cytokine expression IL-13r2a (IL-13r2a): 0.37 ± 0.31

Cn1cnc2c1c(=O)[nH]c(=O)n2C [Theobromine, theobromine]
Capacity to suppress cough (%) (male guinea pig): 57% and 56%

Nc1c(Br)cc(Br)cc1CN[C@H]1CC[C@H](O)CC1 [Ambroxol, ambroxol]
Capacity to discharge sputum (%) (male mouse; oral 250 mg/kg): 34% | Capacity to secrete sputum (%) (male mouse; oral 250 mg/kg, 250 mg/kg): 32% and 30%

Source: patent US20130122127A1, “Extract of Coptidis Rhizoma and novel use thereof in treating respiratory disease” (AHN-GOOK PHARMACEUTICAL CO., LTD., priority 2008, published 2013)
